Measured values: patent US20230047788A1, “COMPOSITIONS COMPRISING 5-CHOLESTEN-3, 25-DIOL, 3-SULFATE (25HC3S) OR PHARMACEUTICALLY ACCEPTABLE SALT THEREOF AND AT LEAST ONE CYCLIC OLIGOSACCHARIDE” (Virginia Commonwealth University, priority 2016, published 2023)

Assay: Effect of phosphate and borate buffers on chemical stability (% remaining, impurity profile), osmolality, pH and appearance of 25HC3S 30 mg/mL in 250 mg/mL HPBCD at 80°C and 60°C
Type: physicochemical
Method: A total of six 25HC3S formulations at 30 mg/mL in 250 mg/mL of 2-hydroxypropyl beta cyclodextrin (HPBCD) containing 10, 20, 50 and 100 mM phosphate buffers at pH 7.5 to 8.1 and 10 and 50 mM borate buffers at pH 9.4 were prepared for the stability study. The chemical stability (measured as % remaining of 25HC3S) and physical stability (osmolality, pH and appearance) of the formulations were monitored under accelerated conditions for up to 7 days at 80° C. and up to 29 days at 60° C.
Two stock solutions of phosphate buffer at 100 and 200 mM at pH 7.4 and 7.3, respectively and one borate buffer at 100 mM at pH 9.3 were prepared (Tables 22A and 22B) and used for 250 mg/mL HPBCD vehicles preparation (Table 23).
Approximately 1200 mg each of 25HC3S was weighed into 40 mL volumetric flasks and diluted to volume with the six HPBCD vehicles containing 10-100 mM phosphate buffers or 10 and 50 mM borate buffers, respectively (Table 24). The final concentration of 25HC3S was 30 mg/mL (wt/volume, without adjusting for API purity). Aliquots of 2 mL of each formulation were filled into 2 mL glass vials, stoppered and sealed for stability sample set-up at 60° C. and 80° C. to study the effect of phosphate buffer (pH 7.5-8.1) and borate buffer (pH 9.4) at various buffer concentrations on the stability of the HPBCD formulations (Table 26).
A 0.5 mL of sample solution was transferred to a 25 mL volumetric flask and QS'ed with methanol/water=95/5 for 25HC3S concentration determination by HPLC. The % remaining of 25HC3S was calculated as follows: […]

[1] = 60° C., day 0, Phosphate 100 mM
[2] = 60° C., day 29, Phosphate 10 mM
[3] = 60° C., day 29, Phosphate 20 mM
[4] = 60° C., day 29, Phosphate 50 mM
[5] = 60° C., day 29, Phosphate 100 mM

## C[C@H](CCCC(C)(C)O)[C@H]1CC[C@H]2[C@@H]3CC=C4C[C@@H](OS(=O)(=O)[O-])CC[C@]4(C)[C@H]3CC[C@]12C.[Na+] [25HC3S, 5-cholesten-3, 25-diol, 3-sulfate]
60° C., day 0, Borate 50 mM
  pH: 9.40
60° C., day 0, Phosphate 10 mM
  25HC3S: 28.45 mg/mL
  % Peak Area 25-Hydroxy Cholesterol at RRT = 3.67: 0.0 % Peak Area
  % Peak Area 25HC3S: 99.8 % Peak Area
  % Peak Area Major Thermal Degradant at RRT = 2.64: 0.3 % Peak Area
  % Remaining of 25HC3S: 100.0%
  Osmolality: 273 mmol/kg
  pH: 8.09
60° C., day 0, Phosphate 20 mM
  25HC3S: 28.63 mg/mL
  % Peak Area 25-Hydroxy Cholesterol at RRT = 3.67: 0.0 % Peak Area
  % Peak Area 25HC3S: 99.7 % Peak Area
  % Peak Area Major Thermal Degradant at RRT = 2.64: 0.3 % Peak Area
  % Remaining of 25HC3S: 100.0%
  Osmolality: 311 mmol/kg
  pH: 7.81
60° C., day 0, Phosphate 50 mM
  25HC3S: 28.50 mg/mL
  % Peak Area 25-Hydroxy Cholesterol at RRT = 3.67: 0.0 % Peak Area
  % Peak Area 25HC3S: 99.7 % Peak Area
  % Peak Area Major Thermal Degradant at RRT = 2.64: 0.3 % Peak Area
  % Remaining of 25HC3S: 100.0%
  Osmolality: 415 mmol/kg
  pH: 7.63
[1]
  25HC3S: 28.58 mg/mL
  % Peak Area 25-Hydroxy Cholesterol at RRT = 3.67: 0.0 % Peak Area
  % Peak Area 25HC3S: 99.8 % Peak Area
  % Peak Area Major Thermal Degradant at RRT = 2.64: 0.3 % Peak Area
  % Remaining of 25HC3S: 100.0%
  Osmolality: 573 mmol/kg
  pH: 7.53
60° C., day 29, Borate 10 mM
  25HC3S: 26.55 mg/mL
  % Peak Area 25-Hydroxy Cholesterol at RRT = 3.67: 1.3 % Peak Area
  % Peak Area 25HC3S: 98.5 % Peak Area
  % Peak Area Major Thermal Degradant at RRT = 2.64: 0.3 % Peak Area
  % Remaining of 25HC3S: 92.9%
  Osmolality: 326 mmol/kg
  pH: 8.90
60° C., day 29, Borate 50 mM
  25HC3S: 27.03 mg/mL
  % Peak Area 25-Hydroxy Cholesterol at RRT = 3.67: 1.3 % Peak Area
  % Peak Area 25HC3S: 98.5 % Peak Area
  % Peak Area Major Thermal Degradant at RRT = 2.64: 0.3 % Peak Area
  % Remaining of 25HC3S: 94.8%
  Osmolality: 541 mmol/kg
  pH: 9.19
[2]
  25HC3S: 26.65 mg/mL
  % Peak Area 25-Hydroxy Cholesterol at RRT = 3.67: 1.4 % Peak Area
  % Peak Area 25HC3S: 98.3 % Peak Area
  % Peak Area Major Thermal Degradant at RRT = 2.64: 0.3 % Peak Area
  % Remaining of 25HC3S: 93.7%
  Osmolality: 281 mmol/kg
  pH: 7.04
[3]
  25HC3S: 26.78 mg/mL
  % Peak Area 25-Hydroxy Cholesterol at RRT = 3.67: 1.4 % Peak Area
  % Peak Area 25HC3S: 98.3 % Peak Area
  % Peak Area Major Thermal Degradant at RRT = 2.64: 0.3 % Peak Area
  % Remaining of 25HC3S: 93.5%
  Osmolality: 322 mmol/kg
  pH: 7.17
[4]
  25HC3S: 26.63 mg/mL
  % Peak Area 25-Hydroxy Cholesterol at RRT = 3.67: 1.4 % Peak Area
  % Peak Area 25HC3S: 98.3 % Peak Area
  % Peak Area Major Thermal Degradant at RRT = 2.64: 0.3 % Peak Area
  % Remaining of 25HC3S: 93.4%
  Osmolality: 430 mmol/kg
  pH: 7.28
[5]
  25HC3S: 26.63 mg/mL
  % Peak Area 25-Hydroxy Cholesterol at RRT = 3.67: 1.4 % Peak Area
  % Peak Area 25HC3S: 98.4 % Peak Area
  % Peak Area Major Thermal Degradant at RRT = 2.64: 0.3 % Peak Area
  % Remaining of 25HC3S: 93.2%
  Osmolality: 592 mmol/kg
  pH: 7.28
60° C., days 0 and 29, Borate 10 and 50 mM, merged cell wrapped over r16-r18: Clear colorless solution
  Appearance: Clear
60° C., days 0 and 29, Phosphate 10, 20, 50 and 100 mM, merged cell wrapped over r8-r10: Clear colorless solution
  Appearance: Clear
80° C., day 0, Borate 10 mM
  % Peak Area 25-Hydroxy Cholesterol at RRT = 3.67: 0.0 % Peak Area
  % Peak Area 25HC3S: 99.7 % Peak Area
  % Peak Area Major Thermal Degradant at RRT = 2.64: 0.3 % Peak Area
80° C., day 0, Borate 50 mM
  % Peak Area 25-Hydroxy Cholesterol at RRT = 3.67: 0.0 % Peak Area
  % Peak Area 25HC3S: 99.9 % Peak Area
  % Peak Area Major Thermal Degradant at RRT = 2.64: 0.2 % Peak Area
80° C., day 0, Phosphate 10 mM
  % Peak Area 25-Hydroxy Cholesterol at RRT = 3.67: 0.0 % Peak Area
  % Peak Area 25HC3S: 99.8 % Peak Area
